Assay results from patent US20230373939A1 (VERTEX PHARMACEUTICALS INCORPORATED, priority 2020, published 2023).

Molecular target: CFTR (Homo sapiens, UniProt P13569)
Experiment: Standard Ussing Chamber Assay for CFTR potentiator activity
Assay type: cell-based
Method: tert-Butyl N-[(6R,12R)-6-benzyloxy-12-methyl-6,15-bis(trifluoromethyl)-13,19-dioxa-3,4,18-triazatricyclo[12.3.1.12,5]nonadeca-1(18),2,4,14,16-pentaen-17-yl]-N-tert-butoxycarbonyl-carbamate (8.6 g, 11.77 mmol) was dissolved in ethanol (172 mL) then the flask was cycled 3 times between vacuum/nitrogen. Treated the mixture with 10% Pd/C (50% water wet, 1.8 g of 5% w/w, 0.8457 mmol) then cycled 3 times between vacuum/nitrogen and 3 times between vacuum/hydrogen and then stirred vigorously under hydrogen (balloon) at room temperature for 18 h. The mixture was cycled 3 times between vacuum/nitrogen, filtered over Celite washing with ethanol and then the filtrate was evaporated to give 7.3 g of tert-butyl N-tert-butoxycarbonyl-N-[(6R,12R)-6-hydroxy-12-methyl-6,15-bis(trifluoromethyl)-13,19-dioxa-3,4,18-triazatricyclo[12.3.1.12,5]nonadeca-1(18),2,4,14,16-pentaen-17-yl]carbamate an off-white solid. 1H NMR and MS confirmed the expected product. CFTR modulatory activity was confirmed using a standard Ussing Chamber Assay for CFTR potentiator activity.

Chain of CFTR (P13569 whole entry, species assumed): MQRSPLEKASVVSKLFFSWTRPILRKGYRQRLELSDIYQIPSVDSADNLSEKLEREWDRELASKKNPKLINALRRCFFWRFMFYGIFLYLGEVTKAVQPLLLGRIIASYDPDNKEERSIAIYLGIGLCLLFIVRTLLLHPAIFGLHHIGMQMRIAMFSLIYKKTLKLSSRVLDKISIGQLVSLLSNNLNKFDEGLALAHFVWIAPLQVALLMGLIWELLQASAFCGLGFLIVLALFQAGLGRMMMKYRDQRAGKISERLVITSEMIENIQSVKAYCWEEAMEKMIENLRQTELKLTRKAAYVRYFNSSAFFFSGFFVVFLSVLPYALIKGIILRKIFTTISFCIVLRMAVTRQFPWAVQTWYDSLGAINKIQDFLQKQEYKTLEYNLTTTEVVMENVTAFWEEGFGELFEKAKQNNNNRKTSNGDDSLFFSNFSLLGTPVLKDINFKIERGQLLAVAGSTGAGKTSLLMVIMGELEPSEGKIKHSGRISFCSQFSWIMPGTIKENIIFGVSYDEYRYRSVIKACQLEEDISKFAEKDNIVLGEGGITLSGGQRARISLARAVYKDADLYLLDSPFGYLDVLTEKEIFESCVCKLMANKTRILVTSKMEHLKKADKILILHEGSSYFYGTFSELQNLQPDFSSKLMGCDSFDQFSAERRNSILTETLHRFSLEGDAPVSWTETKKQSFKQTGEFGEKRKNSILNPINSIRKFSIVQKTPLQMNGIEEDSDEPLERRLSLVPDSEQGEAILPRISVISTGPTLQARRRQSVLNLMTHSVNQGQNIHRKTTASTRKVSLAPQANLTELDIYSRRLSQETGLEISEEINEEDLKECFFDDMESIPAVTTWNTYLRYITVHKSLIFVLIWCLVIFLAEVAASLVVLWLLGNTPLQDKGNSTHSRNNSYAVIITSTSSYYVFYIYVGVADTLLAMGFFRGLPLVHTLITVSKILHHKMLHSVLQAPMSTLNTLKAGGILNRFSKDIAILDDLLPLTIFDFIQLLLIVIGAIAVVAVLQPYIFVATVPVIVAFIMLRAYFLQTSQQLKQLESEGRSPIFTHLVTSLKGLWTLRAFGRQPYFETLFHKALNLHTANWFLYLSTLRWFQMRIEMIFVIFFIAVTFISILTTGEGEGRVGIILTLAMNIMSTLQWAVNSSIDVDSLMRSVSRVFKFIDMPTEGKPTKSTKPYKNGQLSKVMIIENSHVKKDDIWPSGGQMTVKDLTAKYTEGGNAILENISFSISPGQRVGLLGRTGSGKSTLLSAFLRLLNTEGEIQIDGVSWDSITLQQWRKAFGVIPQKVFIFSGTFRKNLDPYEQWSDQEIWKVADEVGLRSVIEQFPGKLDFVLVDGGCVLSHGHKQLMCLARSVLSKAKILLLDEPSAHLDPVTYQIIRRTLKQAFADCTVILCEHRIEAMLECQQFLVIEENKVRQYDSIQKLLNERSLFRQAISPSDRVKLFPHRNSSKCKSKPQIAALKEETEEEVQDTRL

With `C[C@@H]1CCCCC[C@](O)(C(F)(F)F)C2=NN=C(O2)c2nc(c(C(F)(F)F)cc2N)O1` [(6R,12R)-17-Amino-12-methyl-6,15-bis(trifluoromethyl)-13,19-dioxa-3,4,18-triazatricyclo[12.3.1.12,5]nonadeca-1(18),2,4,14,16-pentaen-6-ol] the “CFTR modulatory activity (CFTR potentiator activity)” value was “confirmed”.
